Experimental data from patent publication US5349060A, “Rapamycin 31-ester with N,N-dimethylglycine derivatives useful as immunosuppressive agents” (American Home Products Corporation, priority 1993, dated 1994).
“And” between values parts separate entries of the source, which are not always exact repeats. Equal values may be shown once. Where a name gives a salt, the structure may show the parent alone.

Tests used:
[1] = system: cells from the thymus of normal BALB/c mice (thymocyte proliferation); assay: comitogen-induced thymocyte proliferation procedure (LAF); format: cell-based; conditions: percent change in counts per minute from non-drug treated controls; for percent change in thymocyte proliferation (counts per minute) versus untreated control at 0.01 µM / percent change in thymocyte proliferation (counts per minute) versus untreated control at 0.1 µM: Mus musculus, 72 h, 72 h culture with PHA and IL-1; for percent change in thymocyte proliferation (counts per minute) versus untreated control at 0.01 µM: read-out: Percentage Inhibition in LAF Assay at 10 nM concentration, Analogs; for percent change in thymocyte proliferation (counts per minute) versus untreated control at 0.1 µM: read-out: Percentage Inhibition in LAF Assay at 100 nM concentration, Analogs
Description: Briefly, cells from the thymus of normal BALB/c mice were cultured for 72 hours with PHA and IL-1 and pulsed with tritiated thymidine during the last six hours. Cells are cultured with and without various concentrations of rapamycin, cyclospofin A, or test compound. Cells are harvested and incorporated; radioactivity is determined. Inhibition of lymphoproliferation is assessed in percent change in counts per minute from non-drug treated controls.

[2] = system: pinch skin graft from male BALB/c donors transplanted to male C3H recipients; assay: skin graft assay (survival time of pinch skin graft); format: in vivo, mouse (BALB/c donors; conditions: intraperitoneally once daily for 6 consecutive days; rejection = 95% area necrosis or suture line off; typically rejected within 6-7 days without immunosuppressive agent
Description: The second in vivo test procedure is designed to determine the survival time of pinch skin graft from male BALB/c donors transplanted to male C3H recipients. The method is adapted from Billingham R. E. and Medawar P. B., J. Exp. Biol. 28:385-402, (1951). Briefly, a pinch skin graft from the donor is grafted on the dorsum of the recipient as an allograft and an isograft is used as control in the same region. The recipients are treated with the test compound, intraperitoneally once daily for 6 consecutive days. Untreated recipients serve as rejection control. The graft is monitored daily and observations are recorded until the graft becomes 95% area necrosis or the suture line is off. This is considered as the rejection day. The graft survival time is one day before the rejection day. The mean graft survival time (number of days ±S.D.) of the drug treatment group is compared with the control group.

[3] = system: Candida albicans; conditions: particularly against Candida albicans, both in vitro and in vivo; cited from earlier work
[4] = alone or in combination with picibanil; cited from earlier work
[5] = system: experimental allergic encephalomyelitis model, a model for multiple sclerosis; conditions: in vivo; cited from earlier work
[6] = system: adjuvant arthritis model, a model for rheumatoid arthritis; conditions: in vivo; cited from earlier work
[7] = system: formation of IgE-like antibodies; conditions: cited from earlier work

Compound | percent change in thymocyte proliferation (counts per minute) versus untreated control at 0.01 µM ([1]; 10 nM) [%] | percent change in thymocyte proliferation (counts per minute) versus untreated control at 0.1 µM ([1]; 100 nM) [%] | Skin Graft Assay, Analogs (mean graft survival time, days ± SD) [2] [days] | other results
CO[C@H]1C[C@@H]2CC[C@@H](C)[C@@](O)(O2)C(=O)C(=O)N2CCCC[C@H]2C(=O)O[C@H]([C@H](C)C[C@@H]2CC[C@@H](OS(=O)(=O)c3cccc4cccnc34)[C@H](OC)C2)CC(=O)[C@H](C)/C=C(\C)[C@@H](OC(=O)CN(C)C)[C@@H](OC)C(=O)[C@H](C)C[C@H](C)/C=C/C=C/C=C/1C [Example 7, Rapamycin 31-Ester With N,N-dimethylglycine 42-Ester With 8-quinolinesulfonic Acid] | -62 | -94 | 9.33 ± 1.22 | 
CO[C@H]1C[C@@H]2CC[C@@H](C)[C@@](O)(O2)C(=O)C(=O)N2CCCC[C@H]2C(=O)O[C@H]([C@H](C)C[C@@H]2CC[C@@H](OS(=O)(=O)c3ccc(C)cc3)[C@H](OC)C2)CC(=O)[C@H](C)/C=C(\C)[C@@H](OC(=O)CN(C)C)[C@@H](OC)C(=O)[C@H](C)C[C@H](C)/C=C/C=C/C=C/1C [Example 1, Rapamycin 31-Ester With N,N-dimethylglycine HCl Salt 42-Ester With p-toluenesulfonic Acid] | -6 | -74 |  | 
CO[C@H]1C[C@@H]2CC[C@@H](C)[C@@](O)(O2)C(=O)C(=O)N2CCCC[C@H]2C(=O)O[C@H]([C@H](C)C[C@@H]2CC[C@@H](OC(=O)Nc3ccccc3)[C@H](OC)C2)CC(=O)[C@H](C)/C=C(\C)[C@@H](OC(=O)CN(C)C)[C@@H](OC)C(=O)[C@H](C)C[C@H](C)/C=C/C=C/C=C/1C [Example 3, Rapamycin 31-Ester With N,N-dimethylglycine HCl Salt 42-Ester With Phenylcarbamic Acid] | -14 | -82 |  | 
CO[C@H]1C[C@@H]2CC[C@@H](C)[C@@](O)(O2)C(=O)C(=O)N2CCCC[C@H]2C(=O)O[C@H]([C@H](C)C[C@@H]2CC[C@@H](O)[C@H](OC)C2)CC(=O)[C@H](C)/C=C(\C)[C@@H](OC(=O)CN(C)C)[C@@H](OC)C(O)[C@H](C)C[C@H](C)/C=C/C=C/C=C/1C (stereo partly drawn) [Example 6, 33-Deoxy-33-hydroxyrapamycin 31-Ester With N,N-dimethylglycine HCl Salt] | -13 | -76 | 9.50 ± 1.22 | 
CO[C@H]1C[C@@H]2CC[C@@H](C)[C@@](O)(O2)C(=O)C(=O)N2CCCC[C@H]2C(=O)O[C@H]([C@H](C)C[C@@H]2CC[C@@H](OS(=O)(=O)c3cccc4c(N(C)C)cccc34)[C@H](OC)C2)CC(=O)[C@H](C)/C=C(\C)[C@@H](OC(=O)CN(C)C)[C@@H](OC)C(=O)[C@H](C)C[C@H](C)/C=C/C=C/C=C/1C [Example 8, Rapamycin 31-Ester With N,N-dimethylglycine 42-Ester With 5-(dimethylamino)naphthalene-1-sulfonic Acid] | 13 | -54 |  | 
CO[C@H]1C[C@@H]2CC[C@@H](C)[C@@](O)(O2)C(=O)C(=O)N2CCCC[C@H]2C(=O)O[C@H]([C@H](C)C[C@@H]2CC[C@@H](OC(C)=O)[C@H](OC)C2)CC(=O)[C@H](C)/C=C(\C)[C@@H](OC(=O)CN(C)C)[C@@H](OC)C(=O)[C@H](C)C[C@H](C)/C=C/C=C/C=C/1C [Example 2, Rapamycin 31-Ester With N,N-dimethylglycine HCl Salt 42-Ester With Acetic Acid] | -59 | -96 |  | 
CO[C@H]1C[C@@H]2CC[C@@H](C)[C@@](O)(O2)C(=O)C(=O)N2CCCC[C@H]2C(=O)O[C@H]([C@H](C)C[C@@H]2CC[C@@H](OC(=O)Nc3ccc(F)cc3)[C@H](OC)C2)CC(=O)[C@H](C)/C=C(\C)[C@@H](OC(=O)CN(C)C)[C@@H](OC)C(=O)[C@H](C)C[C@H](C)/C=C/C=C/C=C/1C [Example 4, Rapamycin 31-Ester With N,N-dimethylglycine HCl Salt 41-Ester With 4-fluorophenyl Carbamic Acid] | -38 | -94 | 8.17 ± 0.41 | 
CO[C@H]1C[C@@H]2CC[C@@H](C)[C@@](O)(O2)C(=O)C(=O)N2CCCC[C@H]2C(=O)O[C@H]([C@H](C)C[C@@H]2CC[C@@H](OC(=O)NS(=O)(=O)c3ccccc3)[C@H](OC)C2)CC(=O)[C@H](C)/C=C(\C)[C@@H](OC(=O)CN(C)C)[C@@H](OC)C(=O)[C@H](C)C[C@H](C)/C=C/C=C/C=C/1C [Example 5, Rapamycin 31-Ester With N,N-dimethylglycine HCl Salt 42-Ester With Phenylsulfonyl Carbamic Acid] | 1 | -35 | 10.00 ± 0.57 | 
CO[C@H]1C[C@@H]2CC[C@@H](C)[C@@](O)(O2)C(=O)C(=O)N2CCCC[C@H]2C(=O)O[C@H]([C@H](C)C[C@@H]2CC[C@@H](O)[C@H](OC)C2)CC(=O)[C@H](C)/C=C(\C)[C@@H](O)[C@@H](OC)C(=O)[C@H](C)C[C@H](C)/C=C/C=C/C=C/1C [Rapamycin] |  |  |  | Percentage Inhibition in LAF Assay at 10 nM concentration, Rapamycin ([1]; 10 nM, rapamycin comparator): -85% and -89%; Percentage Inhibition in LAF Assay at 100 nM concentration, Rapamycin ([1]; 100 nM, rapamycin comparator, 0.1 µM): -97% and -96% and -94% and -95%; antifungal activity [3]: antifungal activity; antitumor activity [4]: antitumor activity; effect in the experimental allergic encephalomyelitis model [5]: effective; effect in the adjuvant arthritis model [6]: effective; inhibition of the formation of IgE-like antibodies [7]: effectively inhibited
